According to US9597407B2, “Targeted antimicrobial moieties” (C3 Jian, Inc., priority 2009, dated 2017):
Ends that are not written are not given here.

Columns and labels:
microorganisms [1] = assay: Peptide activities: binding, antimicrobial, growth or phenotype altering (Table 8)
From the text: In certain embodiments, peptides described herein can have multiple activities. Thus for example, a peptide can have both binding/targeting activity and antimicrobial activity. Such peptides can be used, e.g., in a chimeric construct, for any or all of these properties. Thus, for example, a peptide designated “B” in Table 8 can be used as a targeting peptide. If it is also designated G or M it can also be used for antimicrobial activity.

microorganisms [2] = assay: Morphology, biofilm and growth disruption by peptides (Table 5); assay type: cell-based; set-up: key: A: Peptide aggregates; B: Less hyphal formation; Clumps; Diffuse clumps and small polyps; F: Diffuse growth; H: Thin; I: Growth inhibition; Microcolony formation; Rippled; Small polyps; Thick; W: Halo formation on top, microlonies on bottom
From the text: In certain embodiments peptides that induce alterations in phenotype or other biological activities can also be used as antimicrobial effector moieties.

| Substance | Activities (microorganisms [1]) | Organism, effect (morphology, biofilm and growth disruption) (microorganisms [2]; E. coli) | Organism, effect (morphology, biofilm and growth disruption) (microorganisms [2]; E. faecalis) | Organism, effect (morphology, biofilm and growth disruption) (microorganisms [2]; MRSA) | Organism, effect (morphology, biofilm and growth disruption) (microorganisms [2]; S. epidermidis) | Organism, effect (morphology, biofilm and growth disruption) (microorganisms [2]; S. pneumoniae) | further results |
| --- | --- | --- | --- | --- | --- | --- | --- |
| PF-379 (VFVVLFIIYLASKLLTKLFPIKK; Peptide with targeting and/or antimicrobial activity) | G B | – | – | – | – | – | Organism, effect (microorganisms [2]; E. coli): E. coli (C); Organism, effect (microorganisms [2]; E. faecalis): E. faecalis (C); Organism, effect (microorganisms [2]; MRSA): MRSA (C); Organism, effect (microorganisms [2]; S. epidermidis): S. epidermidis (C) |
| PF-380 (KKIIPLITLFVVTLVG; Peptide with targeting and/or antimicrobial activity) | G B | – | – | – | – | – | Organism, effect (microorganisms [2]; C. jejuni): C. jejuni (D); Organism, effect (microorganisms [2]; E. coli): E. coli (C); Organism, effect (microorganisms [2]; E. faecalis): E. faecalis (C); Organism, effect (microorganisms [2]; MRSA): MRSA (D); Organism, effect (microorganisms [2]; P. aeruginosa): P. aeruginosa (A); Organism, effect (microorganisms [2]; S. epidermidis): S. epidermidis (C); Organism, effect (microorganisms [2]; S. pneumoniae): S. pneumoniae (D) |
| PF-386 (FTLTLITTIVAILNYKDKKK; Peptide with targeting and/or antimicrobial activity) | G B | – | – | – | – | – | Organism, effect (microorganisms [2]; E. coli): E. coli (C); Organism, effect (microorganisms [2]; E. faecalis): E. faecalis (C); Organism, effect (microorganisms [2]; MRSA): MRSA (C); Organism, effect (microorganisms [2]; S. epidermidis): S. epidermidis (C) |
| PF-439 (RVLVLKKFHGIMDGNRNVAVFFVGQ; Peptide with targeting and/or antimicrobial activity) | G B | E. coli (R) | E. faecalis (C) | MRSA (M) | S. epidermidis (C) | S. pneumoniae (R) | – |
| PF-440 (MFIISPDLFNIAVILYILFFIHDILLLILS; Peptide with targeting and/or antimicrobial activity) | G B | E. coli (R) | E. faecalis (C) | MRSA (C) | S. epidermidis (C) | S. pneumoniae (R) | – |
| PF-443 (KLLYFFNYFENLQQVHLLVQL; Peptide with targeting and/or antimicrobial activity) | G B | E. coli (R) | – | MRSA (C) | – | S. pneumoniae (C) | – |
| PF-450 (HRNLIILQRTIFI; Peptide with targeting and/or antimicrobial activity) | G B | – | E. faecalis (C) | MRSA (C) | – | S. pneumoniae (C) | – |
| PF-451 (MVNYIIGSYMLYREQNNNEALRKFDITLAM; Peptide with targeting and/or antimicrobial activity) | G B | E. coli (R) | E. faecalis (C) | MRSA (C) | S. epidermidis (C) | S. pneumoniae (C) | – |
| PF-454 (MSVFVPVTNIFMFIMSPIFNVNLLHFKVYI; Peptide with targeting and/or antimicrobial activity) | G B | E. coli (R) | E. faecalis (C) | MRSA (C) | S. epidermidis (C) | S. pneumoniae (R) | Organism, effect (morphology, biofilm and growth disruption) (microorganisms [2]; P. aeruginosa): P. aeruginosa (H) |
| PF-458 (ISLIIFIMLFVVALFKCITNYKHQS; Peptide with targeting and/or antimicrobial activity) | G B | – | – | MRSA (M) | – | S. pneumoniae (M) | Organism, effect (morphology, biofilm and growth disruption) (microorganisms [2]; P. aeruginosa): P. aeruginosa (H) |
| PF-460 (MEHVLPFQNTPPNIVIIYKDFTHLKSITFS; Peptide with targeting and/or antimicrobial activity) | G B | E. coli (H) | E. faecalis (C) | MRSA (C) | S. epidermidis (C) | S. pneumoniae (R) | – |
| PF-465 (KPVGKALEEIADGKIEPVVPKEYLG; Peptide with targeting and/or antimicrobial activity) | G B | – | – | – | – | S. pneumoniae (H) | – |
| PF-469 (YKVNYNNIDNHFNTLRH; Peptide with targeting and/or antimicrobial activity) | G B | E. coli (C) | E. faecalis (D) | MRSA (D) | S. epidermidis (D) | S. pneumoniae (D) | Organism, effect (morphology, biofilm and growth disruption) (microorganisms [2]; C. jejuni): C. jejuni (D) |
| PF-471 (MVGKIRGVTPRNDLLNANITGQLNLNYRLI; Peptide with targeting and/or antimicrobial activity) | G B | E. coli (C) | E. faecalis (C) | MRSA (D) | S. epidermidis (C) | S. pneumoniae (D) | Organism, effect (morphology, biofilm and growth disruption) (microorganisms [2]; C. jejuni): C. jejuni (D); Organism, effect (morphology, biofilm and growth disruption) (microorganisms [2]; P. aeruginosa): P. aeruginosa (A) |
| PF-475 (MREKVRFTQAFKLFWTNYFNFKGRSRRSEY; Peptide with targeting and/or antimicrobial activity) | G B | – | E. faecalis (R) | MRSA (S) | S. epidermidis (M) | S. pneumoniae (R) | Organism, effect (morphology, biofilm and growth disruption) (microorganisms [2]; C. albicans): C. albicans (B); Organism, effect (morphology, biofilm and growth disruption) (microorganisms [2]; C. jejuni): C. jejuni (R) |
| PF-478 (HLFILKSHLKPFPPFRYTYD; Peptide with targeting and/or antimicrobial activity) | G B | E. coli (C) | – | MRSA (H) | S. epidermidis (C) | S. pneumoniae (C) | – |
| PF-479 (AYILKRREEKNK; Peptide with targeting and/or antimicrobial activity) | G B | – | – | – | – | S. pneumoniae (C) | – |
| PF-482 (LVGYVRTSGTVRSYKIN; Peptide with targeting and/or antimicrobial activity) | G B | – | – | – | – | S. pneumoniae (S) | – |
| PF-526 (VLLLFIFQPFQKQLL-NH2) | G B | E. coli (R) | – | MRSA (C) | S. epidermidis (C) | S. pneumoniae (R) | Organism, effect (morphology, biofilm and growth disruption) (microorganisms [2]; C. albicans): C. albicans (C) |
| PF-537 (LANDYYKKTKKSW; Peptide with targeting and/or antimicrobial activity) | G B | – | – | – | – | S. pneumoniae (C) | – |
| PF-539 (SIILTKKKRRKIPLSIDSQIYKYTFKQ; Peptide with targeting and/or antimicrobial activity) | G B | – | – | MRSA (H) | – | S. pneumoniae (A) | – |
